Data reported in patent US10842765B2, “Methods of reducing or preventing oxidation of small dense ldl or membrane polyunsaturated fatty acids” (Amarin Pharmaceuticals Ireland Limited, priority 2016, dated 2020).

What was measured:
[1] = Glucose-induced membrane lipid peroxidation (LOOH) in lipid vesicles, Example 4; type: biochemical; settings: 72- and 96-hour time points; 1:30 drug-to-phospholipid mole ratio; glucose
Procedure: An experiment was conducted to test the ability of EPA to interfere with the effects of high glucose on membrane lipid peroxidation and organization in vesicles enriched with PUFAs. […] Vitamin E (α-tocopherol) was also purchased from Sigma-Aldrich and prepared in ethanol at 1.0 mM (ε=3.06×10^4 M^−1 cm^−1 at 294 nm) just prior to experimental use. […] All test compounds were further diluted in ethanol or aqueous buffer as needed. Glucose was prepared in saline buffer (0.5 mM HEPES, 154 mM NaCl, pH 7.3) at 11.0 mM (200 mg/dL). CHOD-iodide color reagent (stock) was prepared, with slight modification, as described by from El-Saadani et al. (J. […] Samples were shell-dried under nitrogen gas and placed under vacuum for 1 h to remove residual solvent. […] Lipid suspensions were then vortexed for 3 min at ambient temperature to form MLVs. All MLV samples were subjected to time-dependent autoxidation by incubating at 37° C. in an uncovered, shaking water bath. This method allows lipid peroxidation to occur gradually without requiring the use of exogenous initiators. Small aliquots (5-100 μL) of each sample were removed, immediately following MLV preparation (0 hour) and after exposing samples to oxidative conditions for 72 or 96 hour, and combined with 1.0 mL of activated CHOD-iodide color reagent. Aliquot volume was reduced with each successive time point to ensure that spectrophotometric readings were within the optimal adsorption range. Test samples were covered and incubated in darkness at room temperature for at least 4 hr. Sample absorbances were then measured against a CHOD blank at 365 nm using a Beckman DU-640 spectrophotometer. The CHOD colorimetric assay is based on the oxidation of iodide (I^−) by lipid hydroperoxide (LOOH) to form triiodide (I3^−), the quantity of which is directly proportional to the amount of LOOH present in the lipid sample. The molar absorptivity (I3^−) of I3^− is 2.46×10^4 M^−1 cm^−1 at 365 nm. […]

human sdLDL [2] = test: Copper-induced sdLDL oxidation, TBARS after 2 hr, Example 6; type: biochemical; settings: 1.0 μM to 10.0 μM
Procedure: An experiment to study the antioxidant effect of EPA in small dense […] performed. […] Vitamin E (α-tocopherol) was purchased from Sigma-Aldrich and prepared in ethanol at 1.0 mM (ε=3.06×10^4 M^-1 cm^-1 at 294 nm) just prior to experimental use. All test compounds were further diluted in ethanol or aqueous buffer as needed. Venous blood was collected from healthy volunteers into vacutainer tubes containing sodium EDTA. Plasma was separated by centrifugation at 3000 g for 25 min at 4° C. and adjusted to a density of 1.020 g/mL with KBr. Triglyceride-rich lipoproteins (TGRL) and LDL fractions were then isolated bysequential centrifugation at 70,000 rpm at 4° C. in a Beckman LE-80 ultracentrifuge using a Beckman 50.4Ti rotor (Beckman Coulter, Inc., Fullerton, Calif.). The TGRL fraction (with a relative density of <1.020) was aspirated from the top of the centrifugate and discarded, leaving an LDL-enriched […] relative density of 1.020 to 1.063). […] The sdLDL subfraction was retained for additional experimentation. Plasma and lipoprotein fractions were maintained at 4° C. and protected from excessive exposure to light. […] Differences between groups were analyzed using the two-tailed, Student's t-test (for comparisons between only two groups) or ANOVA followed by Dunnett or Student-Newman-Keuls multiple comparisons post-hoc analysis (for comparisons between three or more groups).

unfractionated LDL = test: Copper-induced unfractionated LDL oxidation, TBARS, Example 6; type: biochemical, human; settings: 1.0 μM to 10.0 μM; data not shown
Procedure: All test compounds were further diluted in ethanol or aqueous buffer as needed. Venous blood was collected from healthy volunteers into vacutainer tubes containing sodium EDTA. […] Plasma and lipoprotein fractions were maintained at 4° C. and protected from excessive exposure to light. Prior to oxidation experiments, EDTA was removed from the lipoprotein fraction using PD-10 desalting columns (GE Healthcare, Piscataway N.J.). After equilibration of the column with phosphate buffered saline (PBS), 2.5 mL of the lipoprotein fraction was loaded on the column and the flow-through discarded. The lipoprotein was then eluted with 3 mL of PBS. The LDL fractions were further diluted with PBS to obtain a 100 μg/mL apoB100 concentration. […] Differences between groups were analyzed using the two-tailed, Student's t-test (for comparisons between only two groups) or ANOVA followed by Dunnett or Student-Newman-Keuls multiple comparisons post-hoc analysis (for comparisons between three or more groups).

human LDL = test: Copper-induced unfractionated LDL oxidation, TBARS, Example 7; type: biochemical; settings: each agent 10.0 μM; 1 hour
[3] = system: small dense LDL (sdLDL) isolated from human subjects; test: Glucose-induced sdLDL oxidation (MDA/TBARS), Example 10; type: biochemical; settings: 10 μM; glucose 200 mg/dL; 1 hr
Procedure: Vitamin E (α-tocopherol) purchased from Sigma-Aldrich was prepared in ethanol at 1.0 mM (ε=3.06×10^4 M^−1 cm^−1 at 294 nm) prior to experimental use. Test compounds were further diluted in ethanol or aqueous buffer as needed. Phosphate Buffered Saline (PBS) purchased from Sigma-Aldrich was prepared in double distilled water at 10 mM (138 mM NaCl, 2.7 mM KC, pH 7.4). Glucose prepared in PBS was added to test samples to achieve a final concentration of 11.0 mM (200 mg/dL).
LDL and sdLDL were isolated from the plasma of healthy volunteers by iodixanol density gradient ultracentrifugation and adjusted to a final apolipoprotein concentration of 10 mg/mL. […] Sample aliquots were incubated at 100° C. for 30 minutes and then assayed for the formation of thiobarbituric acid-reactive substances (TBARS), having a molar absorptivity (ε) value of 1.56×10^5 M^−1 cm^−1 at 532 nm and were derived principally from the reaction of thiobarbituric acid with malondialdehyde (MDA). Lipid oxidation was measured by the colorimetric detection of malondialdehyde (MDA), a marker of oxidative stress.
Data were presented as mean±SD for (n) separate samples or experiments. Differences between groups were analyzed using the unpaired, two-tailed Student's t-test (for comparisons between only two groups) or ANOVA followed by Student-Newman-Keuls multiple comparisons post hoc analysis (for comparisons between three or more groups). Only differences with probability values less than 0.05 were considered significant.

human sdLDL [4] = test: Copper-induced sdLDL oxidation, TBARS, Example 7; type: biochemical; settings: each agent 10 μM; 1 hr
Procedure: Samples were prepared at 100 μg/mL sdLDL and incubated with EPA or DHA (10.0 μM each) for 30 minutes prior to initiating lipid oxidation using 10 μM CuSO4. Samples were maintained at 37° C. in a shaking water bath for 1 hour. Lipid oxidation was measured by colorimetric assay of TBARS formation and expressed as molar equivalents of MDA.
An experiment to study the antioxidant effect of EPA in LDL and small dense LDL (“sdLDL”) was performed. LDL and sdLDL were isolated from the plasma of healthy volunteers by iodixanol density gradient ultracentrifugation, and adjusted to a final apolipoprotein concentration of 2 mg/mL. […] Lipid oxidation was initiated with 10 μM CuSO4 and monitored by the colorimetric detection of thiobarbituric acid reactive substances (TBARS) for 1 hr. Vitamin E was also incubated with sample aliquots as a positive control.

HMG-CoA reductase = molecular target: T1, HMG-CoA reductase (Homo sapiens, UniProt P04035); settings: primary pharmacokinetic studies; hepatic cytochrome P450 metabolism; cited from earlier work
T1 sequence (P04035 1-888): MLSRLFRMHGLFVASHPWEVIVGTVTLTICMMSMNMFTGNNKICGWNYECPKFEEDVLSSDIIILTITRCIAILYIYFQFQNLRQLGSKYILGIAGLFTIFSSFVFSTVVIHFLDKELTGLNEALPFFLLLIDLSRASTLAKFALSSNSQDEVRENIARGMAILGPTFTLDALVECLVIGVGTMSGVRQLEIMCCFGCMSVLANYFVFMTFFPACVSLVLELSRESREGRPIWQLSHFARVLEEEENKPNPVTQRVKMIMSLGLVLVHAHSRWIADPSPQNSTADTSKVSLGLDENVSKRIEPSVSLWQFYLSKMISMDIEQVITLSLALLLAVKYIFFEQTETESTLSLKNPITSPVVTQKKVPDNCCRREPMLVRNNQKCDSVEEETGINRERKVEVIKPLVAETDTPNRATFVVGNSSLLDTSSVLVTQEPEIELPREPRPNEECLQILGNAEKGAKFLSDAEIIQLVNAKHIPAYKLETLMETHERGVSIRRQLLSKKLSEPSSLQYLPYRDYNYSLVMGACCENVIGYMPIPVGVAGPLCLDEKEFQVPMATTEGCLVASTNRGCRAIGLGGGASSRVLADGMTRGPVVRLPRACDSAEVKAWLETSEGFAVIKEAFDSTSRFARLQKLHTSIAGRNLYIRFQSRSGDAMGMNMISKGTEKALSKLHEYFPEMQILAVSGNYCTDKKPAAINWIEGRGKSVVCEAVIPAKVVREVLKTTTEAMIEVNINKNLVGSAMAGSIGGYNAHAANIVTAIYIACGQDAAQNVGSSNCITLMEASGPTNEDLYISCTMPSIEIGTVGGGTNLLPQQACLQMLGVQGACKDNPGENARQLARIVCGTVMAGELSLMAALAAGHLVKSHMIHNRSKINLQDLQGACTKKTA

Row | SMILES | effect on LOOH formation / lipid peroxidation [1] | inhibition of sdLDL oxidation (human sdLDL [2]) | inhibition of LDL oxidation (unfractionated LDL) | effect on unfractionated LDL oxidation (human LDL) | increase of sdLDL oxidation as compared to glucose-treated controls [3] | inhibition of glucose-induced sdLDL oxidation (in words) [3] | inhibition of sdLDL oxidation (TBARS formation) vs vehicle (human sdLDL [4]) | share of circulating HMG-CoA reductase inhibitory activity accounted for by active metabolites (HMG-CoA reductase)
1 | Cc1c(C)c2c(c(C)c1O)CC[C@@](C)(CCC[C@H](C)CCC[C@H](C)CCCC(C)C)O2 [vitamin E, α-tocopherol] | no significant effect on lipid peroxidation | did not inhibit sdLDL oxidation except at the highest concentration | did not inhibit LDL oxidation at any concentration | no significant effect on unfractionated LDL oxidation | 63% | failed to inhibit sdLDL oxidation |  | 
2 | Cc1ccc(C)c(OCCCC(C)(C)C(=O)O)c1 [Gemfibrozil, gemfibrozil] |  |  |  | no significant effect on unfractionated LDL oxidation |  | did not inhibit glucose-induced sdLDL oxidation |  | 
3 | O=C(O)c1cccnc1 [Niacin, nicotinic acid] |  |  |  | no significant effect on unfractionated LDL oxidation |  | did not inhibit glucose-induced sdLDL oxidation |  | 
4 | CC(C)c1c(C(=O)Nc2ccccc2)c(-c2ccccc2)c(-c2ccc(F)cc2)n1CC[C@@H](O)C[C@@H](O)CC(=O)O [atorvastatin] |  |  |  | did not have any significant antioxidant activity |  |  | 0.1±7% | approximately 70%
